Values joined by “and” are separate entries in the source; they are usually repeats but may differ in a detail not shown here. Equal entries are not always repeated. Inconclusive results and toxic doses are left out. Cut-off read from the data, not from the text of the source: active = T/C of 150% or more; inactive = T/C below 125%.
System: L1210 leukemia ip in BDF1 mice, survival T/C
Assay: NCI In Vivo Anticancer Drug Screen. Data for tumor model L1210 Leukemia (intraperitoneal) in B6D2F1 (BDF1) mice
Conditions: endpoint: mean survival time, higher = longer survival
Procedure, shortened: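 Value reflects the ratio of survival in compound-treated mice to survival in vehicle-treated controls, with both groups carrying the same transplanted tumor.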

[1] = dose: 100.0 mg/kg/injection, schedule: Q01DX009 (ip), vehicle: Klucel (hydroxypropylcellulose) (HPC)
[2] = dose: 200.0 mg/kg/injection, schedule: Q01DX009 (ip), vehicle: Klucel (hydroxypropylcellulose) (HPC)
[3] = dose: 400.0 mg/kg/injection, schedule: Q01DX009 (ip), vehicle: Klucel (hydroxypropylcellulose) (HPC)
[4] = dose: 3.12 mg/kg/injection, schedule: Q01DX009 (ip), vehicle: saline
[5] = dose: 10.0 mg/kg/injection, schedule: Q01DX009 (ip), vehicle: Klucel (hydroxypropylcellulose) (HPC)
[6] = dose: 100.0 mg/kg/injection, schedule: Q04DX003 (ip), vehicle: Klucel (hydroxypropylcellulose) (HPC)
[7] = dose: 200.0 mg/kg/injection, schedule: Q04DX003 (ip), vehicle: Klucel (hydroxypropylcellulose) (HPC)
[8] = dose: 400.0 mg/kg/injection, schedule: Q04DX003 (ip), vehicle: Klucel (hydroxypropylcellulose) (HPC)
[9] = dose: 100.0 mg/kg/injection, schedule: Q01DX001 (ip), vehicle: carboxymethylcellulose (CMC)
[10] = dose: 50.0 mg/kg/injection, schedule: Q01DX009 (ip), vehicle: saline with Tween-80
[11] = dose: 100.0 mg/kg/injection, schedule: Q01DX009 (ip), vehicle: saline with Tween-80
[12] = dose: 200.0 mg/kg/injection, schedule: Q01DX009 (ip), vehicle: saline with Tween-80
[13] = dose: 100.0 mg/kg/injection, schedule: Q01DX001 (ip), vehicle: Klucel (hydroxypropylcellulose) (HPC)
[14] = dose: 200.0 mg/kg/injection, schedule: Q01DX001 (ip), vehicle: Klucel (hydroxypropylcellulose) (HPC)
[15] = dose: 400.0 mg/kg/injection, schedule: Q01DX001 (ip), vehicle: Klucel (hydroxypropylcellulose) (HPC)
[16] = dose: 100.0 mg/kg/injection, schedule: Q01DX001 (ip), vehicle: saline
[17] = dose: 200.0 mg/kg/injection, schedule: Q01DX001 (ip), vehicle: saline
[18] = dose: 400.0 mg/kg/injection, schedule: Q01DX001 (ip), vehicle: saline

Measured: T/C

CC1=C(O)C(=O)C=C2C1=CC=C1[C@@]2(C)CC[C@@]2(C)[C@@H]3C[C@](C)(C(=O)O)CC[C@]3(C)CC[C@]12C
inactive: dose: 5.0 mg/kg/injection, schedule: Q01DX001 (ip), vehicle: carboxymethylcellulose (CMC) 95 % of control and 100 % of control | dose: 10.0 mg/kg/injection, schedule: Q01DX001 (ip), vehicle: carboxymethylcellulose (CMC) 97 % of control | dose: 20.0 mg/kg/injection, schedule: Q01DX001 (ip), vehicle: carboxymethylcellulose (CMC) 103 % of control and 89 % of control | dose: 40.0 mg/kg/injection, schedule: Q01DX001 (ip), vehicle: carboxymethylcellulose (CMC) 122 % of control

CC(=O)N(C)c1ccc(NC(=O)Nc2cc(C(F)(F)F)ccc2Cl)cc1
inactive: [1] 96 % of control | [2] 94 % of control | [3] 94 % of control

C/C=C/C(=O)OCCC[N+](C)(C)C
inactive: dose: 0.78 mg/kg/injection, schedule: Q01DX009 (ip), vehicle: saline 95 % of control | dose: 1.56 mg/kg/injection, schedule: Q01DX009 (ip), vehicle: saline 97 % of control | [4] 100 % of control | dose: 6.25 mg/kg/injection, schedule: Q04DX003 (ip), vehicle: saline 111 % of control | dose: 12.5 mg/kg/injection, schedule: Q04DX003 (ip), vehicle: saline 88 % of control | dose: 25.0 mg/kg/injection, schedule: Q04DX003 (ip), vehicle: saline 103 % of control

O=C(Nc1ccc2c(c1)OCO2)N1CC1
inactive: [5] 102 % of control | dose: 20.0 mg/kg/injection, schedule: Q01DX009 (ip), vehicle: Klucel (hydroxypropylcellulose) (HPC) 92 % of control | dose: 20.0 mg/kg/injection, schedule: Q04DX003 (ip), vehicle: Klucel (hydroxypropylcellulose) (HPC) 103 % of control | dose: 40.0 mg/kg/injection, schedule: Q04DX003 (ip), vehicle: Klucel (hydroxypropylcellulose) (HPC) 113 % of control

CCCCCCCCc1ccc(NC(N)=S)cc1
inactive: [4] 104 % of control | dose: 6.25 mg/kg/injection, schedule: Q01DX009 (ip), vehicle: saline 107 % of control | dose: 12.5 mg/kg/injection, schedule: Q01DX009 (ip), vehicle: saline with Tween-80 92 % of control | dose: 12.5 mg/kg/injection, schedule: Q01DX009 (ip), vehicle: saline 111 % of control

O=C(C(=O)c1cc(Br)ccc1O)c1cc(Br)ccc1O
inactive: [1] 96 % of control | [6] 93 % of control | [2] 100 % of control | [7] 97 % of control | [3] 94 % of control | [8] 95 % of control

CO[C@]12[C@@H](COC(=O)NCCO)C3=C(C(=O)C(C)=C(N)C3=O)N1C[C@@H]1[C@H]2N1C (some centres undefined)
inactive: dose: 75.0 mg/kg/injection, schedule: Q01DX001 (ip), vehicle: saline 112 % of control

O=[N+]([O-])c1ccc2ccc3ccccc3c2c1
inactive: [9] 97 % of control | dose: 200.0 mg/kg/injection, schedule: Q01DX001 (ip), vehicle: carboxymethylcellulose (CMC) 95 % of control | dose: 400.0 mg/kg/injection, schedule: Q01DX001 (ip), vehicle: carboxymethylcellulose (CMC) 97 % of control

COC(=O)C1(C)CCCC2(C)C1CCC13OCC(CC21)C(O)(C(C)C)C3O (centres undefined)
inactive: [10] 97 % of control | [11] 97 % of control | [12] 90 % of control

NC(=O)c1cc(NCCO)c([N+](=O)[O-])cc1[N+](=O)[O-]
inactive: [13] 104 % of control | [14] 100 % of control | [15] 96 % of control

Cc1ccc(S(N)(=O)=O)cc1S(N)(=O)=O
inactive: [13] 94 % of control | [14] 92 % of control | [15] 105 % of control

O=C(O)C1C(=O)OC2CCCCC21 (centres undefined)
inactive: [10] 88 % of control | [11] 88 % of control | [12] 95 % of control

O=C(O)/C=C/C(=O)Nc1ccccc1
inactive: [1] 90 % of control | [6] 93 % of control | [2] 97 % of control | [7] 95 % of control | [3] 100 % of control | [8] 95 % of control

O=C(Nc1ccc(S(=O)(=O)Nc2ccc(N=Nc3ccc(S(=O)(=O)Nc4nccs4)cc3)cc2)cc1)C(N1CC1)(N1CC1)N1CC1
inactive: dose: 15.0 mg/kg/injection, schedule: Q01DX001 (ip), vehicle: saline 105 % of control | dose: 30.0 mg/kg/injection, schedule: Q01DX001 (ip), vehicle: saline 105 % of control

O=NN(Cc1ccccc1)Cc1ccccc1
inactive: dose: 50.0 mg/kg/injection, schedule: Q01DX001 (ip), vehicle: saline 104 % of control | [16] 102 % of control | [17] 98 % of control | [18] 104 % of control

O=C(O)CCC(=O)CC1CCCCC1
inactive: dose: 100.0 mg/kg/injection, schedule: Q04DX003 (ip), vehicle: saline with Tween-80 101 % of control | dose: 200.0 mg/kg/injection, schedule: Q04DX003 (ip), vehicle: saline with Tween-80 87 % of control

CCOC(=O)N1CCC2C(CC3CC2C3(C)C)N1C(=O)OCC (centres undefined)
inactive: dose: 50.0 mg/kg/injection, schedule: Q01DX009 (ip), vehicle: Klucel (hydroxypropylcellulose) (HPC) 103 % of control | [1] 101 % of control | [6] 97 % of control | [2] 101 % of control | [7] 101 % of control | [8] 99 % of control

CC12CC(c3ccoc3)OC(=O)C1CCC1(C)C2C2C=CC1(O)C(=O)O2 (centres undefined)
inactive: [16] 104 % of control | [17] 98 % of control | [18] 104 % of control

CCCCCCCCCCCCCC[n+]1cccc(C#N)c1
inactive: dose: 10.0 mg/kg/injection, schedule: Q01DX001 (ip), vehicle: saline 100 % of control | dose: 10.0 mg/kg/injection, schedule: Q04DX003 (ip), vehicle: saline 93 % of control | dose: 20.0 mg/kg/injection, schedule: Q01DX001 (ip), vehicle: saline 100 % of control | dose: 20.0 mg/kg/injection, schedule: Q04DX003 (ip), vehicle: saline 93 % of control | dose: 40.0 mg/kg/injection, schedule: Q01DX001 (ip), vehicle: saline 97 % of control | dose: 40.0 mg/kg/injection, schedule: Q04DX003 (ip), vehicle: saline 86 % of control

Brc1cc(Br)c2[nH]c3c(Br)cc(Br)cc3c2c1
inactive: [1] 101 % of control | [2] 102 % of control

C=CCC(O)C=C (centres undefined)
inactive: dose: 50.0 mg/kg/injection, schedule: Q01DX001 (ip), vehicle: carboxymethylcellulose (CMC) 89 % of control | [9] 92 % of control

N#CC1C(=O)NC(=O)C(C#N)C12CCCCC2 (centres undefined)
inactive: [16] 106 % of control | [11] 101 % of control | [17] 106 % of control | [12] 97 % of control

NC(N)=NC(N)=Nc1ccc(N=C(N)N=C(N)N)cc1
inactive: dose: 100.0 mg/kg/injection, schedule: Q01DX001 (ip), vehicle: other 104 % of control

NC(=O)C(Br)c1ccccc1 (centres undefined)
inactive: [6] 101 % of control | [7] 98 % of control

CN(C)N=Nc1ccc(C(=O)OC2CCC3C4CCC5=CC(=O)CCC5(C)C4CCC23C)cc1 (centres undefined)
inactive: [5] 96 % of control | dose: 100.0 mg/kg/injection, schedule: Q04DX002 (ip), vehicle: Klucel (hydroxypropylcellulose) (HPC) 94 % of control | [2] 102 % of control | dose: 200.0 mg/kg/injection, schedule: Q04DX002 (ip), vehicle: Klucel (hydroxypropylcellulose) (HPC) 102 % of control | [3] 97 % of control | dose: 400.0 mg/kg/injection, schedule: Q04DX002 (ip), vehicle: Klucel (hydroxypropylcellulose) (HPC) 91 % of control

— PubChem BioAssay AID248 (DTP/NCI, 2004)
